Measurements as given in BindingDB's records for doi:10.1124/jpet.103.064907 (Abbott Laboratories, 2004).

These molecules were tested against T1, P2X purinoceptor 3 (Homo sapiens, UniProt P56373).
T1 sequence (P56373 whole entry): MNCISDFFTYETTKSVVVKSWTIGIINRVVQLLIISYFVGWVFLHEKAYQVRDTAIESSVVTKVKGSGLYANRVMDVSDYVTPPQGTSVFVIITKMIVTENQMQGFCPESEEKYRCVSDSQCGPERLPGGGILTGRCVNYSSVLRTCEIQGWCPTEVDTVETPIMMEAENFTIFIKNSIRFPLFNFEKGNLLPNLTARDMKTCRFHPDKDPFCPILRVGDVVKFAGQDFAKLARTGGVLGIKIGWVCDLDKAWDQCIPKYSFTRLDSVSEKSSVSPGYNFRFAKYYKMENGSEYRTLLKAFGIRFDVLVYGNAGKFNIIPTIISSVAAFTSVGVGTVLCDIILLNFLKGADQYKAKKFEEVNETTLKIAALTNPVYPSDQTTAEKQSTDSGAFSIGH

Row | Compound | Ki
1 | Nc1ncnc2c1ncn2[C@@H]1O[C@H](CO[P@](=O)(O)O[P@](=O)(O)OC[C@H]2O[C@@H](n3cnc4c(N)ncnc43)[C@H](O)[C@@H]2O)[C@@H](O)[C@H]1O [NSC_0] | > 10 µM
2 | Nc1ncnc2c1ncn2C1OC(COP(=O)(O)OP(=O)(O)OP(=O)(O)OP(=O)(O)OP(=O)(O)OP(=O)(O)OCC2OC(n3cnc4c(N)ncnc43)C(O)C2O)C(O)C1O (centres undefined) [NSC_123694] | 0.0048 µM
3 | Nc1ncnc2c1ncn2[C@@H]1O[C@H](COP(=O)(O)CP(=O)(O)O)[C@@H](O)[C@H]1O [alpha, beta-methyleneadenosine 5 -diphosphate] | > 10 µM
4 | Nc1ncnc2c1ncn2[C@@H]1O[C@H](COP(=O)(O)CP(=O)(O)OP(=O)(O)O)[C@@H](O)[C@H]1O [({[({[5-(6-amino-9H-purin-9-yl)-3,4-dihydroxyoxolan-2-yl]methoxy}(hydroxy)phosphoryl)methyl](hydroxy)phosphoryl}oxy)phosphonic acid] | 0.009 µM
5 | Nc1ncnc2c1ncn2[C@@H]1O[C@H](COP(=O)(O)OP(=O)(O)CP(=O)(O)O)[C@@H](O)[C@H]1O [adenylylmethylenediphosphonate] | 0.387 µM
6 | Nc1ncnc2c1ncn2C1OC(COP(=O)(O)OP(=O)(O)OP(O)(O)=S)C(O)C1O (centres undefined) [NSC_440317] | 0.0403 µM
7 | Nc1ncnc2c1ncn2C1OC(COP(=O)(O)OP(=O)(O)OP(=O)(O)OP(=O)(O)OP(=O)(O)OCC2OC(n3cnc4c(N)ncnc43)C(O)C2O)C(O)C1O (centres undefined) [NSC_440210] | 0.0104 µM
8 | Nc1ncnc2c1ncn2[C@@H]1O[C@H](COP(=O)(O)OP(=O)(O)S)[C@@H](O)[C@H]1O (some centres undefined) [CAS_123848] | 0.297 µM
9 | Nc1ncnc2c1ncn2[C@@H]1O[C@H](COP(=O)(O)OP(=O)(O)OP(=O)(O)O)[C@@H](O)[C@H]1O | 0.0146 µM

Continued, values first:

Row | Ki | Compound
10 | 0.0077 µM | Nc1ncnc2c1ncn2[C@@H]1O[C@H](COP(=O)(O)OP(=O)(O)OP(=O)(O)O)[C@@H](OC(=O)c2ccc(C(=O)c3ccccc3)cc2)[C@H]1O [NSC_0]
11 | > 10 µM | CN(C(Cc1ccc(OS(=O)(=O)c2cccc3cnccc23)cc1)C(=O)N1CCN(c2ccccc2)CC1)S(=O)(=O)c1cccc2cnccc12 (centres undefined) [KN-62]
12 | 2.53 µM | Nc1c(S(=O)(=O)O)cc(Nc2ccc(Nc3nc(Cl)nc(Nc4ccccc4S(=O)(=O)O)n3)c(S(=O)(=O)O)c2)c2c1C(=O)c1ccccc1C2=O
13 | 2.61 µM | O=c1ccn([C@@H]2O[C@H](COP(=O)(O)OP(=O)(O)OP(=O)(O)O)[C@@H](O)[C@H]2O)c(=O)[nH]1 [({[({[5-(2,4-dioxo-1,2,3,4-tetrahydropyrimidin-1-yl)-3,4-dihydroxyoxolan-2-yl]methoxy}(hydroxy)phosphoryl)oxy](hydroxy)phosphoryl}oxy)phosphonic acid]
14 | 0.0082 µM | CSc1nc(N)c2ncn([C@@H]3O[C@H](COP(=O)(O)OP(=O)(O)OP(=O)(O)O)[C@@H](O)[C@H]3O)c2n1 [ATP, 2-meS]
15 | 1.67 µM | Nc1ncnc2c1ncn2C1OC(COP(=O)(O)OP(=O)(O)OP(=O)(O)OC2C(CO)OC(n3cnc4c(N)ncnc43)C2O)C(O)C1O (centres undefined) [CAS_3035419]
16 | 0.452 µM | Nc1ncnc2c1ncn2[C@@H]1O[C@H](COP(=O)(O)OP(=O)(O)O)[C@@H](O)[C@H]1O [ADP]
17 | 0.0473 µM | Nc1ncnc2c1ncn2[C@@H]1O[C@H](COP(=O)(O)OP(=O)(O)OP(=O)(O)O)C[C@H]1O [NSC_0]
18 | 0.18 µM | Nc1ncnc2c1ncn2[C@H]1C[C@H](O)[C@@H](COP(=O)(O)OP(=O)(O)OP(=O)(O)O)O1
19 | 0.406 µM | Nc1ncnc2c1ncn2[C@H]1CC[C@@H](COP(=O)(O)OP(=O)(O)OP(=O)(O)O)O1 [2',3'-Dideoxyadenosine Triphosphate (Ddatp)]
